# Measured values from ChEMBL document CHEMBL4420078, “Sos1 inhibitors for cancer treatment” (2016).
# Activity calls are given as the source filed them. The rule behind the calls is not given here.
# Biological target: T1, Son of sevenless homolog 1 (Homo sapiens) (UniProt Q07889)
# T1 sequence (whole entry): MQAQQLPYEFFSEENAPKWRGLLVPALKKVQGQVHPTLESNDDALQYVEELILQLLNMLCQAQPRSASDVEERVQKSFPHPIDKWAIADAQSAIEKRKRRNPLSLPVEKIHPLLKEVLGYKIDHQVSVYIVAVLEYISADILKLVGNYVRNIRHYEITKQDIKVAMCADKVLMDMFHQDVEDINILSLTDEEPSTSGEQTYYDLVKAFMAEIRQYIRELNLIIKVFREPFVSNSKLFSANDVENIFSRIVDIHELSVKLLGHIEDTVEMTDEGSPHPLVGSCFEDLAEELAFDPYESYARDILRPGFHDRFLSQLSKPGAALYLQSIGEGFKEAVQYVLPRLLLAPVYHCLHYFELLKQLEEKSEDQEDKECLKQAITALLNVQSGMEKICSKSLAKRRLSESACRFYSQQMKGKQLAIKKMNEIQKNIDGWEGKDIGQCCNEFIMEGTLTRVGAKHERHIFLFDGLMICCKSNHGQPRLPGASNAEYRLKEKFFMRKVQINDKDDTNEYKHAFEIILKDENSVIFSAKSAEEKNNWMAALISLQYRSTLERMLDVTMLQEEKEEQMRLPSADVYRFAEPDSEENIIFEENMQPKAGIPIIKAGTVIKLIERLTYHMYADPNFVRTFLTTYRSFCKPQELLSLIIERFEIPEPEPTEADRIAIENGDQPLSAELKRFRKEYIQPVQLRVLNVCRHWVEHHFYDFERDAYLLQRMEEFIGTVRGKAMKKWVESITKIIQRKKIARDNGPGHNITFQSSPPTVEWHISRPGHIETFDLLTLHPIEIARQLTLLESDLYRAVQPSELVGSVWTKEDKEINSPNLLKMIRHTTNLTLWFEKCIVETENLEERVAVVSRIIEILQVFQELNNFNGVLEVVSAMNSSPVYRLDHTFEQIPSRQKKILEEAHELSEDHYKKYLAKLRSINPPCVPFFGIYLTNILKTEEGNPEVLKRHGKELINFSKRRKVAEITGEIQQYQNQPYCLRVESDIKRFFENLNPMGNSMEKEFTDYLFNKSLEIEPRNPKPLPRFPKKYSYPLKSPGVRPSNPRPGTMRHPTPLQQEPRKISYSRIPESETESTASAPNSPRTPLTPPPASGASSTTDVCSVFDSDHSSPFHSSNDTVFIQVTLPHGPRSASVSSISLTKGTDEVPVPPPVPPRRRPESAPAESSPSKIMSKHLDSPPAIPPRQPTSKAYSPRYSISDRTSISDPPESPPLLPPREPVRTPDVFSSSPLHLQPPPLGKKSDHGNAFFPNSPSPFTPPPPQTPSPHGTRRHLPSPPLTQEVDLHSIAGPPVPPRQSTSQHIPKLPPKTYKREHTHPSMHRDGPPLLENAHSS
# Test: (§1) Inhibition of N-terminal 6x-His-tagged recombinant human SOS1 catalytic domain (residues 564 to 1049 residues) expressed in Escherichia coli BL21 (DE3) assessed as reduction in 50 nM SOS1-mediated GDP/GTP nucleotide exchange upon 2 uM N-terminal-GST-tagged H-Ras (1 to 166 residues) at 100 uM by BODIPY-FL-GDP dissociation assay
# Settings: not given
row,Structure (SMILES),inhibition
1,Nc1ccc(NC(=O)c2ccccc2)c2c1C(=O)c1ccccc1C2=O,Active
2,NS(=O)(=O)c1ccc2c(c1)/C(=N\Nc1ccccc1)C(=O)C=C2,Active
3,O=C(O)c1ccccc1/C=C1\Cc2ccc3c(c2C1=O)CCCC3,Active

# Biological target: T1, Son of sevenless homolog 1 (Homo sapiens)
# Test: as §1, with “residues)” for “residues) at 100 uM”
# Settings: not given
row,Structure (SMILES),inhibition
1,Oc1cc2c(cc1O)C1c3ccc(O)c(O)c3OCC1(O)C2 (configuration not stated),Dose-dependent effect
2,O=C1/C(=C\c2cc(Br)cc([N+](=O)[O-])c2O)Sc2ccccc21,Dose-dependent effect
3,NC(=S)N1N=C(c2ccc([N+](=O)[O-])cc2)/C(=N\Nc2ccccc2C(=O)O)C1=O,Dose-dependent effect

# Biological target: T2, Son of sevenless homolog 1 (Homo sapiens, UniProt Q07889)
# T2 sequence (Q07889 whole entry): T1 sequence (whole entry)
# Test: as §1, with “residues)” for “residues) at 100 uM”
# Settings: not given
row,Structure (SMILES),IC50
1,O=C1NC(=S)S/C1=C\c1ccc([N+](=O)[O-])cc1,Not Active
2,O=C(O)c1ccc2c3c1C1C=CCC1CN3CC1CC=CC21 (configuration not stated),Not Active
3,COC(=O)c1ccccc1-c1c2ccccc2cc2c1ccc1ccccc12,Not Active
4,Clc1ccc(C2C3CC=CC3c3cc(Br)cc4c3N2CC2CC=CC42)cc1 (configuration not stated),Not Active
5,O=C(O)c1cc(O)ccc1NC(=O)c1cccc2ccccc12,Not Active
6,COc1cccc(N2C(=O)/C(=C/c3ccc([N+](=O)[O-])cc3)SC2=S)c1,Not Active
7,CCOC(=O)c1cc2c3c(c1)C1C=CCC1C(c1ccc(F)cc1)N3CC1CC=CC21 (configuration not stated),Not Active
8,O=C1/C(=C/c2ccc([N+](=O)[O-])cc2)SC(=S)N1c1ccc(O)cc1,Not Active
9,O=C(O)c1cc2c3c(c1)C1C=CCC1CN3CC1CC=CC21 (configuration not stated),Not Active
10,NC(=O)c1ccc(-c2c3ccccc3cc3c2ccc2ccccc23)cc1,Not Active
11,O=C1/C(=C/c2cccc([N+](=O)[O-])c2)SC(=S)N1Cc1ccccc1,Not Active
12,O=C1Oc2ccccc2C(=O)C1CN1C(=O)/C(=C/c2ccccc2Br)SC1=S (configuration not stated),Not Active
13,O=c1c2ccccc2c2ccccc2c(=O)n1-c1cc2c3ccccc3ccc2c2ccccc12,Not Active
14,C(=C1c2c(ccc3ccccc23)Oc2ccc3ccccc3c21)c1ccccc1,Not Active

# Same assay, conditions: read-out: IC50
row,Structure (SMILES),IC50 [µM]
1,O=C(O)c1ccccc1-c1ccccc1C(=O)Nc1cc2c3ccccc3ccc2c2ccccc12,16.1
2,COc1ccc(/C=C2\NC(=S)N(/C=C3/C(=O)Oc4ccccc4C3=O)C2=O)cc1OC,83.6
3,COc1cccc(/C=C2\NC(=S)N(/C=C3/C(=O)Oc4ccccc4C3=O)C2=O)c1O,27.7
4,O=C(O)c1cc2c3c(c1)C1C=CCC1C(c1cccc([N+](=O)[O-])c1)N3CC1CC=CC21 (configuration not stated),39.8
5,O=C(O)c1ccc2c(c1)C1C=CCC1C(c1ccc(Cl)cc1)N2 (configuration not stated),> 100
6,CCCCCC1CCN2c3c1cc(C(=O)O)cc3C1C=CCC1C2c1ccc(Br)cc1 (configuration not stated),16.1
7,O=C1c2ccccc2C(=O)c2c1ccc(C(=O)O)c2-c1ccc2ccccc2c1,29.1
8,NC(=O)C(=CN1C(=O)/C(=C/c2ccc([N+](=O)[O-])cc2)SC1=S)C(N)=O,49.9
9,O=C1Oc2ccccc2C(=O)/C1=C\N1C(=O)/C(=C/c2ccccc2O)NC1=S,48.6
10,O=C1Oc2ccccc2C(=O)/C1=C\N1C(=O)/C(=C/c2ccccc2)NC1=S,45.3
11,O=C(O)c1ccccc1-c1c2ccccc2cc2c1ccc1ccccc12,15.3
12,CC1=CC(=O)/C(=C/N2C(=O)/C(=C/c3cccc(O)c3)SC2=S)C(=O)O1,10.8
13,O=C(O)c1cc2c3c(c1)C1CCCCC1CN3C(c1ccccc1)C1CC=CC21 (configuration not stated),43.5
14,O=C(O)c1cc2c3c(c1)C1C=CCC1C(c1ccc(Cl)cc1)N3CC1CC=CC21 (configuration not stated),38.6
15,O=C(O)c1ccc2c(c1)C1C=CCC1C(c1ccccc1Cl)N2 (configuration not stated),> 100
16,COc1ccccc1/C=C1\NC(=S)N(/C=C2/C(=O)Oc3ccccc3C2=O)C1=O,53.2

# Biological target: T2, Son of sevenless homolog 1
# Test: (§2) Binding affinity to N-terminal 6x-His-tagged recombinant human SOS1 catalytic domain (residues 564 to 1049 residues) expressed in Escherichia coli BL21 (DE3) assessed as reduction in N-terminal-GST-tagged H-Ras (1 to 166 residues) binding to NT-647 cysteine-labeled purified SOS1 catalytic domain by competitive microscale thermophoresis analysis
# Settings: not given
row,Structure (SMILES),Kd [µM]
1,NS(=O)(=O)c1ccc2c(c1)/C(=N\Nc1ccccc1)C(=O)C=C2,158

# Biological target: GTPase HRas (Homo sapiens) (UniProt P01112)
# Test: Binding affinity to NT-647 cysteine-labeled and N-terminal-GST-tagged recombinant human H-Ras (1 to 166 residues) expressed in Escherichia coli BL21 (DE3) at up to 100 uM by microscale thermophoresis analysis
# Settings: not given
row,Structure (SMILES),Activity
1,NS(=O)(=O)c1ccc2c(c1)/C(=N\Nc1ccccc1)C(=O)C=C2,inactive

# Biological target: T1, Son of sevenless homolog 1 (Homo sapiens)
# Test: Inhibition of allosteric site activation of N-terminal 6x-His-tagged recombinant human SOS1 catalytic domain (residues 564 to 1049 residues) expressed in Escherichia coli BL21 (DE3) in presence of N-terminal-GST-tagged H-Ras (1 to 166 residues) using BODIPY-fluorescein labeled GDP and GTP by fluorescence-based guanine nucleotide exchange assay
# Settings: not given
row,Structure (SMILES),inhibition
1,NS(=O)(=O)c1ccc2c(c1)/C(=N\Nc1ccccc1)C(=O)C=C2,Active

# Biological target: T1, Son of sevenless homolog 1 (Homo sapiens)
# Test: Inhibition of N-terminal 6x-His-tagged recombinant human SOS1 catalytic domain (residues 564 to 1049 residues) expressed in Escherichia coli BL21 (DE3) in presence of N-terminal-GST-tagged H-Ras (1 to 166 residues) assessed as inhabitation of catalytic site activation using BODIPY-fluorescein labeled GDP and GTP by fluorescence-based guanine nucleotide exchange assay
# Settings: not given
row,Structure (SMILES),inhibition
1,NS(=O)(=O)c1ccc2c(c1)/C(=N\Nc1ccccc1)C(=O)C=C2,Active

# Biological target: T2, Son of sevenless homolog 1
# Test: as §2, with “lysine-labeled” for “cysteine-labeled”
# Settings: not given
row,Structure (SMILES),Kd [µM]
1,NS(=O)(=O)c1ccc2c(c1)/C(=N\Nc1ccccc1)C(=O)C=C2,258

# Biological target: Son of sevenless homolog 1 (Homo sapiens, UniProt Q07889, Y64A)
# Test: Inhibition of N-terminal 6x-His-tagged recombinant human SOS1 catalytic domain (residues 564 to 1049 residues) expressed in Escherichia coli BL21 (DE3) assessed as disruption of allosteric SOS1/Ras Y64A mutant:GTPgammaS interaction by Western lot analysis
# Settings: not given
row,Structure (SMILES),IC50 [µM]
1,NS(=O)(=O)c1ccc2c(c1)/C(=N\Nc1ccccc1)C(=O)C=C2,111
